Test results: US9944618B2, “Inhibiting neurotransmitter reuptake” (Mayo Foundation for Medical Education and Research, priority 2013, dated 2018)
Like-named read-outs stand apart in the source and are kept apart here.

Legend:
[1] = pKa of basic centres (Table 1); format: physicochemical
[2] = molecular target: human dopamine transporter (Homo sapiens (Human), UniProt Q01959); assay: Human DAT (dopamine transporter) uptake assay; format: cell-based; conditions: read-out: hDAT Ki
Procedure: This protocol was designed to measure inhibition of uptake by the human dopamine transporter. […] The Assay Buffer (AB) was 1×HBSS and 0.02 M HEPES.
(§1) The HEK293F cells were transfected with the human dopamine transporter and frozen in 1 mL aliquots at about 1E+07 cells/mL. On the day of the experiment, the cells were removed from −80° C. or liquid nitrogen and thawed in a room temperature water bath. The cells were dilute to about 1-2E+06 with Freestyle medium. A 1 mL sample (1:2 dilution) was prepared, and the cells were counted. The cells were spun at 1100 rpm for 5 minutes, and the medium was aspirated off. The cells were resuspend in medium at 1.5E+06 cells/mL for about 60,000 cells per well. 40 μL of cells were dispensed per well in the Biocoat plates. The plates were spun at 1100 rpm for 1 minute to improve homogeneity of the cell layer and were incubated at 37° C. for a minimum of 3 hours.
(§2) 12 μL of test compound (10 mM) in DMSO was added to the wells, and nomifensine was used as a control. […] The neurotransmitter transporter dye was prepared in AB prior to use.
Due to the proprietary nature of the dye formulation, all dye concentrations were expressed as a percentage of the vendor-recommended dye reconstitution. Thus, the above calculations were valid when both [dye] and K1 were expressed in the same units (%). Compounds were tested in triplicate (n=3).

[3] = molecular target: human serotonin transporter (Homo sapiens (Human), UniProt P31645); assay: Human SERT (serotonin transporter) uptake assay; format: cell-based; conditions: read-out: hSERT Ki
Procedure: This protocol was designed to measure inhibition of uptake by the human serotonin transporter. […] The Assay Buffer (AB) was […] and 0.02 M HEPES.
as §1, with “serotonin” for “dopamine”
12 μL of test compound (10 mM) in DMSO was added to the wells, and nomifensine was used as a control. Fluoxetine (final assay concentration of 10 μM) was used for background signal. The neurotransmitter transporter dye was prepared in AB prior to use.
(§3) Due to the proprietary nature of the dye formulation, all dye concentrations were expressed as a percentage of the vendor-recommended dye reconstitution. Thus, the above calculations were valid when both [dye] and Km were expressed in the same units (%). Compounds were tested in triplicate (n=3).

[4] = molecular target: human norepinephrine transporter (Homo sapiens (Human), UniProt P23975); assay: Human NET (norepinephrine transporter) uptake assay; format: cell-based; conditions: for Ki: read-out: hNET Ki; for potency at hNET relative to the other enantiomer or epimer: comparison in words, used to assign configuration
Procedure: This protocol was designed to measure inhibition of uptake by the human norepinephrine transporter. […] The Assay Buffer (AB) was 1×HBSS and 0.02 M HEPES.
as §1, with “norepinephrine” for “dopamine”
as §2, §3

[5] = first base, e.g., an aliphatic primary, secondary, or tertiary amine, read-out: pKa (Base 1)
[6] = second base in the same molecule (if present), read-out: pKa (Base 2)

Chain of human norepinephrine transporter (P23975 whole entry): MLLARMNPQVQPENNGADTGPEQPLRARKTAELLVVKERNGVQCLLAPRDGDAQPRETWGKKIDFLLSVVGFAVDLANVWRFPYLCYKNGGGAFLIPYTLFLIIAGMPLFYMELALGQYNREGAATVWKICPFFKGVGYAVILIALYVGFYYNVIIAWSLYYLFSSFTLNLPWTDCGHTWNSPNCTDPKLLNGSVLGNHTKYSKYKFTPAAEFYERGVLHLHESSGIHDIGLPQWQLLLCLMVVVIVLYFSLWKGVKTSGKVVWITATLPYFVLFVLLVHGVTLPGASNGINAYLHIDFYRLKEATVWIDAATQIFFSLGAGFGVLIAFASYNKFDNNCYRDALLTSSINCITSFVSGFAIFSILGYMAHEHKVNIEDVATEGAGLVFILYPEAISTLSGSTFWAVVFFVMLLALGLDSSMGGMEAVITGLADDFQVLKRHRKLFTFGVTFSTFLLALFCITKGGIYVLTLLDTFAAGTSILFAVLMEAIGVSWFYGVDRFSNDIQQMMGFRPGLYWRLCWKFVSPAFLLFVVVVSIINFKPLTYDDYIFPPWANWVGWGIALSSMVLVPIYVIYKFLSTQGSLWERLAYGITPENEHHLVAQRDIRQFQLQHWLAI
Chain of human serotonin transporter (P31645 whole entry): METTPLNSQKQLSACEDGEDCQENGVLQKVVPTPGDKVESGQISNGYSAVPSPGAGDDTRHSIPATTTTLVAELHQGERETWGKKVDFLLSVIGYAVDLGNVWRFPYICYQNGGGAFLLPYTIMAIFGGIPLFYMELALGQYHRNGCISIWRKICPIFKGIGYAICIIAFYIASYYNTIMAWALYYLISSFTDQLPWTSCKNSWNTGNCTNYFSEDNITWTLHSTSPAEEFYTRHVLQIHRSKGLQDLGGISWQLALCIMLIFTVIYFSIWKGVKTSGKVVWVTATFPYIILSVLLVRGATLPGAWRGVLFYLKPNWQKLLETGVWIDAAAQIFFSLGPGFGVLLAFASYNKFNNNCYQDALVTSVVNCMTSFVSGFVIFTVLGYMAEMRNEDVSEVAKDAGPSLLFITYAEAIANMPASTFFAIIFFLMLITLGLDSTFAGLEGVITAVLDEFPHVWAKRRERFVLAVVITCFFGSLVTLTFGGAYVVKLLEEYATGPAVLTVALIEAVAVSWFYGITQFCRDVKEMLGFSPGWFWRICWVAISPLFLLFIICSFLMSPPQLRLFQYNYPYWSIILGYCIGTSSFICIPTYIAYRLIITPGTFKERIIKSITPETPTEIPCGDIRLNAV
Chain of human dopamine transporter (Q01959 whole entry): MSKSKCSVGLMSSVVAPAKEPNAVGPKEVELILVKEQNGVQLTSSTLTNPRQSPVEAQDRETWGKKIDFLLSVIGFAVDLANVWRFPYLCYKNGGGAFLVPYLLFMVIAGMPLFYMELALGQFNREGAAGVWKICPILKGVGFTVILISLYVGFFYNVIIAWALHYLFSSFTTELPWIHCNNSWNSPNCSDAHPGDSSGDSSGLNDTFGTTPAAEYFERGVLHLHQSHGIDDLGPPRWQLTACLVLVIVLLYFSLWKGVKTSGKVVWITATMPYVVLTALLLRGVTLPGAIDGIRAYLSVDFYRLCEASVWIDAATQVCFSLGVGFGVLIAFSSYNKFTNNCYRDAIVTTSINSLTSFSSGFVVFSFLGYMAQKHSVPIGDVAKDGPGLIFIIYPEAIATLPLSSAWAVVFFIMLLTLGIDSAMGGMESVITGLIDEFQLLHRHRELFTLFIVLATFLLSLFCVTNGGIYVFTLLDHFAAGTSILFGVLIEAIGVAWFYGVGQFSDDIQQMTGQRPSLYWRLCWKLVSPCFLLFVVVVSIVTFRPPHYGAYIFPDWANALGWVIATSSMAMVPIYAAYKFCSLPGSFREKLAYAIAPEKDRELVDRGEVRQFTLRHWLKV

Compound | pKa [1, 5] | Ki [2] [nM] | Ki [3] [nM] | Ki [4] [nM] | other results
CNCC(Cc1ccccc1F)c1ccc2ccccc2c1 (racemic) [Compound 36] | 10 |  |  |  | 
CNC[C@H](c1ccc(Br)cc1)[C@H](O)c1ccccc1 (racemic) [Compound 149] | 9.7 | 129 | 119 | 7.7 | 
CNC[C@@H](c1ccc(Br)c(Cl)c1)[C@H](O)c1ccccc1 (racemic) [Compound 150] | 9.4 | 31.8 | 51.5 | 6.3 | 
CNC[C@H](c1ccc2ccccc2c1)[C@H](O)c1cc(F)cc(F)c1 (single isomer, unassigned) [Compound 37] | 9.6 | 63.6 | 54.6 | 3 | 
CNC[C@H](c1ccc2ccccc2c1)[C@H](OCC(=O)NC1CCC1)c1ccccc1 [Compound 8] | 9.6 | 10.8 | 1.3 | 1.4 | 
CNCC(Cc1ccccc1F)c1ccc2ccccc2c1 (stereo not drawn) [Compound 17] | 10 |  |  |  | 
CNCC(CCc1ccccc1)[C@@H](O)c1ccccc1 (stereo partly drawn) [Compound 27] |  | 96.7 | 252 | 2.3 | pKa (Base 1) ([1]; first base, e.g., an aliphatic primary, secondary, or tertiary amine): 10.1
CNC[C@H](c1ccc2ccccc2c1)[C@H](OCc1cccn(C)c1=O)c1ccccc1 [Compound 31] | 9.6 | 24.6 | 1.9 | 2.4 | 
CNCC(c1ccc2ccccc2c1)C(OC)c1ccccc1 (stereo not drawn) [Compound 38] | 9.7 | 49.9 | 16.9 | 3.1 | 
CNC[C@H](c1ccc2ccccc2c1)[C@H](OCC(=O)Nc1ccccc1)c1ccccc1 [Compound 45] | 9.7 | 8.9 | 2.4 | 3.3 | 
CNC[C@H](c1ccc2ccccc2c1)[C@H](OC)c1ccccc1 [Compound 46] | 9.7 | 37.5 | 24.2 | 3.4 | 
CNC[C@H](c1ccc2ccccc2c1)[C@H](O)c1cccs1 [Compound 47] | 9.7 | 15 | 2.2 |  | 
CNC[C@H](c1ccc2ccccc2c1)[C@H](OCC(=O)NCCOC)c1ccccc1 [Compound 51] | 9.6 | 141 | 2.6 | 3.9 | 
CNC[C@H](c1ccc2ccccc2c1)[C@H](OCC(=O)NCC(F)(F)F)c1ccccc1 [Compound 68] | 9.6 | 55.5 | 29.7 | 8.4 | 
CNC[C@H](c1ccc2ccccc2c1)[C@H](OCC(=O)N(C)OC)c1ccccc1 [Compound 71] | 9.6 | 17.9 | 4.4 | 10 | 
CNC[C@H](c1ccc2ccccc2c1)[C@H](OCc1cccc(=O)n1C)c1ccccc1 [Compound 79] | 9.7 | 73.3 | 6.4 | 14.4 | 
CNC[C@H](c1ccc2ccccc2c1)[C@H](O[C@H](C)C(=O)N1CCCC1)c1ccccc1 [Compound 81] | 9.6 | 1360 | 13 | 14.7 | 
CNC[C@H](c1ccc2ccccc2c1)[C@H](OCc1nc(C(=O)OC)co1)c1ccccc1 [Compound 84] | 9.6 | 39.2 | 3.3 | 16.2 | 
NC[C@@H](c1ccc2ccccc2c1)[C@@H](O)c1ccccc1 [Compound 88] | 8.7 | 80.4 |  |  | 

Compound | pKa [1, 5] | Ki [2] [nM] | Ki [3] [nM] | Ki [4] [nM] | other results
NCC(c1ccc2ccccc2c1)[C@@H](O)c1ccccc1 (stereo partly drawn) [Compound 91] | 8.7 | 249 |  |  | 
CNC[C@H](c1ccc2ccccc2c1)[C@H](OCC(=O)N1CC[C@H](OC)C1)c1ccccc1 [Compound 131] | 9.6 |  |  |  | 
NCC(Cc1ccccc1F)c1ccc2ccccc2c1 (stereo not drawn) [Compound 137] | 9.3 | 77.7 | 31.8 |  | 
CNC[C@H](Cc1ccccc1F)c1ccc2ccccc2c1 [Compound 138] | 10 |  |  |  | 
CNCC(CCc1ccccc1)[C@@H](O)c1ccccc1 (stereo partly drawn) [Compound 147] | 10.1 | 121 | 800 | 45.7 | 
CCc1ccccc1[C@@H](O)[C@H](CNC)c1ccc(Cl)c(Cl)c1 [compound 158] |  |  |  |  | potency at hNET ([4]; stated in synthesis example): 6 nM
CCc1cccc([C@@H](O)[C@H](CNC)c2ccc(Cl)c(Cl)c2)c1 [compound 159] |  |  |  |  | potency at hNET relative to the other enantiomer or epimer [4]: more potent
CNC[C@H](c1ccc(Cl)c(Cl)c1)[C@H](O)c1ccccc1OC [compound 160] |  |  |  |  | potency at hNET relative to the other enantiomer or epimer [4]: greater hNET potency
CNC[C@H](c1ccc(Cl)c(Cl)c1)[C@@H](O)c1cccc(Br)c1 [compound 161] |  |  |  |  | potency at hNET relative to the other enantiomer or epimer [4]: more potent
CNC[C@@H](c1ccc(Cl)c(Cl)c1)[C@@H](O)c1cccc(Br)c1 [compound 162] |  |  |  |  | potency at hNET relative to the other enantiomer or epimer [4]: less potent
CNC[C@H](c1ccc(Cl)c(Cl)c1)[C@@H](O)c1cccc(SC)c1 [compound 163] |  |  |  |  | potency at hNET relative to the other enantiomer or epimer [4]: more potent
CNC[C@H](c1ccc(Cl)c(Cl)c1)[C@H](O)c1ccccc1I [compound 164] |  |  |  |  | potency at hNET relative to the other enantiomer or epimer [4]: greater potency
CNC[C@H](c1ccc(Cl)c(Cl)c1)[C@@H](O)c1cccc(I)c1 [compound 165] |  |  |  |  | potency at hNET relative to the other enantiomer or epimer [4]: higher potency
CNC[C@H](c1ccc(Cl)c(Cl)c1)[C@H](O)c1cncc(OC)c1 [compound 166] |  |  |  |  | potency at hNET relative to the other enantiomer or epimer [4]: more potent
CNC[C@H](c1ccc(Cl)c(Cl)c1)[C@H](O)c1cccc(OC)n1 [compound 167] |  |  |  |  | potency at hNET relative to the other enantiomer or epimer [4]: higher potency
CNCC(c1ccc2ccccc2c1)[C@@H](O)c1ccc(Cl)nc1 (stereo partly drawn) [compound 169] |  |  |  |  | potency at hNET relative to the other enantiomer or epimer [4]: lower potency
CNC[C@@H](c1ccc(Cl)c(Cl)c1)[C@@H](O)c1cccnc1OC [compound 171] |  |  |  |  | potency at hNET relative to the other enantiomer or epimer [4]: less potent
CNC[C@@H](c1ccc(Cl)c(Cl)c1)[C@@H](OC)c1cccc(NS(=O)(=O)C(F)(F)F)c1 [compound 172] |  |  |  |  | potency at hNET relative to the other enantiomer or epimer [4]: less potent
CNCCC(Oc1ccccc1OC)c1ccccc1 (stereo not drawn) [compound 177] |  |  | 54.4 |  | 

The next lines start with results.

pKa [1, 5] | Ki [2] [nM] | Ki [3] [nM] | Ki [4] [nM] | Compound | other results
10 | 971 | 2.4 | 4.5 | CNC[C@H](c1ccc(OC)c(C)c1)[C@H](O)c1ccccc1 (racemic) [Compound 54] | 
9.6 | 52.2 | 34.7 |  | CNCC(Cc1cccnc1)c1ccc(Cl)c(Cl)c1 (racemic) [Compound 80] | pKa [1, 6]: 5.2
9.7 | 114 | 191 | 8.5 | CNC[C@H](c1ccc(Cl)cc1)[C@H](O)c1ccccc1 (racemic) [Compound 148] | 
9.5 | 6.6 | 3.6 | 1.4 | CNC[C@H](c1ccc2ccccc2c1)[C@@H](O)c1ccncc1Cl [Compound 7] | pKa [1, 6]: 3
9.6 | 112 | 35.6 |  | CNC[C@@H](Cc1cccnc1)c1ccc(Cl)c(Cl)c1 [Compound 59] | pKa [1, 6]: 5.2
9.6 | 127 | 642 |  | CNC[C@H](Cc1cccnc1)c1ccc(Cl)c(Cl)c1 [Compound 115] | pKa [1, 6]: 5.2
9.7 | 113 | 10 |  | CNC[C@@H](c1ccc2ccccc2c1)[C@@H](O)c1cccs1 [Compound 144] | 
